Experimental data taken from PubChem BioAssay AID1259408 (Genetic Toxicology Data Bank (GENE-TOX), 2018).
Calls of active or inactive are those of the source. How the calls were made is not given here.

Tested on: GENE-TOX genotoxicity assays, various organisms and cells
Test: GENE-TOX mutagenicity studies
Settings: for call: Assay Type: In vivo carcinogenicity studies
[1] = Species/Cell Type: Nonhuman, Assay Code: CCG+, Evaluation Type: Evaluation A (Pre-1980)
[2] = Species/Cell Type: Nonhuman, Assay Type: Sister-chromatid exchange (SCE) in vitro, Assay Code: SC2+D, Dose Response: With dose response, Evaluation Type: Evaluation B (Post-1980)
[3] = Species/Cell Type: Nonhuman, Assay Type: Sister-chromatid exchange (SCE) in vivo, Assay Code: SC3+D, Dose Response: With dose response, Evaluation Type: Evaluation B (Post-1980)
[4] = Species/Cell Type: Human lymphocytes, Assay Type: Sister-chromatid exchange (SCE) in vitro, Assay Code: SCL+D, Dose Response: With dose response, Evaluation Type: Evaluation B (Post-1980)
[5] = Species/Cell Type: Human, Assay Type: Sister-chromatid exchange (SCE) in vitro, Assay Code: SC1+D, Dose Response: With dose response, Evaluation Type: Evaluation B (Post-1980)
[6] = Species/Cell Type: Human lymphocytes, Assay Type: Sister-chromatid exchange (SCE) in vitro, Assay Code: SCL+, Evaluation Type: Evaluation B (Post-1980)
[7] = Species/Cell Type: Mammalian polychromatic erythrocytes, Assay Type: Micronucleus test, chromosome aberrations, Assay Code: MNTT, Evaluation Type: Evaluation B (Post-1980)
[8] = Species/Cell Type: Salmonella typhimurium (one or more of the five standard strains: TA98, TA100, TA1535, TA1537, and TA1538), Assay Type: Histidine reverse gene mutation, Ames assay, Assay Code: SALT, Evaluation Type: Evaluation A (Pre-1980)
[9] = Species/Cell Type: Allium cepa, Assay Type: Chromosome aberrations, Assay Code: ALC+, Evaluation Type: Evaluation A (Pre-1980)
[10] = Species/Cell Type: Drosophila melanogaster, Assay Type: Sex-linked recessive lethal gene mutation, Assay Code: SRL+, Evaluation Type: Evaluation A (Pre-1980)
[11] = Species/Cell Type: Drosophila melanogaster, Assay Type: Sex-linked recessive lethal gene mutation, Assay Code: SRLT, Evaluation Type: Evaluation A (Pre-1980)
[12] = Species/Cell Type: Mammalian polychromatic erythrocytes, Assay Type: Micronucleus test, chromosome aberrations, Assay Code: MNT+, Evaluation Type: Evaluation B (Post-1980)
[13] = Species/Cell Type: Chinese hamster lung (V79) cells, Assay Type: Forward gene mutation at the HPRT or ouabain locus, Assay Code: V79+, Evaluation Type: Evaluation A (Pre-1980)
[14] = Species/Cell Type: Salmonella typhimurium (one or more of the five standard strains: TA98, TA100, TA1535, TA1537, and TA1538), Assay Type: Histidine reverse gene mutation, Ames assay, Assay Code: SAL+*, Activation: With metabolic activation, Evaluation Type: Evaluation A (Pre-1980)
[15] = Species/Cell Type: Neurospora crassa, Assay Type: Reverse gene mutation, Assay Code: NER+, Evaluation Type: Evaluation A (Pre-1980)
[16] = Species/Cell Type: Escherichia coli polA (W3119 vs P3478), Assay Type: Rec-assay, DNA effects (bacterial DNA repair), Assay Code: RE1T, Evaluation Type: Evaluation A (Pre-1980)

Structure (SMILES): c1ccccc1
- mutagenic call (Species/Cell Type: Human lymphocytes or leukocytes, Assay Type: Chromosome aberrations in vitro, Assay Code: CY7+, Evaluation Type: Evaluation A (Pre-1980)): active; positive
- mutagenic call (Species/Cell Type: Human lymphocytes or leukocytes, Assay Type: Chromosome aberrations in vivo, Assay Code: CY8+, Evaluation Type: Evaluation A (Pre-1980)): active; positive
- mutagenic call (Species/Cell Type: Human lymphocytes, Assay Type: Sister-chromatid exchange (SCE) in vitro, Assay Code: SCL+*, Activation: With metabolic activation, Evaluation Type: Evaluation B (Post-1980)): active; positive
- mutagenic call (Species/Cell Type: Human lymphocytes, Assay Type: Sister-chromatid exchange (SCE) in vitro, Assay Code: SCL-, Evaluation Type: Evaluation A (Pre-1980)): inactive; negative
- mutagenic call (Species/Cell Type: Human lymphocytes, Assay Type: Sister-chromatid exchange (SCE) in vivo, Assay Code: SCY+, Evaluation Type: Evaluation B (Post-1980)): active; positive
- mutagenic call (Species/Cell Type: Human, Assay Type: Sister-chromatid exchange (SCE) in vitro, Assay Code: SC1+*, Activation: With metabolic activation, Evaluation Type: Evaluation B (Post-1980)): active; positive
- mutagenic call (Species/Cell Type: Human, Assay Type: Sister-chromatid exchange (SCE) in vitro, Assay Code: SC1-, Evaluation Type: Evaluation A (Pre-1980)): inactive; negative
- mutagenic call (Species/Cell Type: Mammalian polychromatic erythrocytes, Assay Type: Micronucleus test, chromosome aberrations, Assay Code: MNT+, Evaluation Type: Evaluation A (Pre-1980)): active; positive
- mutagenic call (Species/Cell Type: Mouse, Sex: Male, Assay Type: Sperm morphology, Assay Code: SPI+, Evaluation Type: Evaluation A (Pre-1980)): active; positive
- call [1]: active; positive
- mutagenic call [2]: active; positive
- mutagenic call [3]: active; positive
- mutagenic call (Species/Cell Type: Syrian hamster embryo (SA7/SHE) cells, Assay Type: Cell transformation, viral enhanced, Assay Code: CT7-, Evaluation Type: Evaluation A (Pre-1980)): inactive; negative
- mutagenic call (Species/Cell Type: Tradescantia species, Assay Type: Gene mutation, Assay Code: TRM+D, Dose Response: With dose response, Evaluation Type: Evaluation A (Pre-1980)): active; positive

Structure (SMILES): CNC(=O)c1c(I)c(NC(C)=O)c(I)c(C(=O)O)c1I
- mutagenic call [4]: active; positive
- mutagenic call [5]: active; positive

Structure (SMILES): CN(O)C(=O)c1ccc2ccccc2c1
- mutagenic call (Species/Cell Type: Nonhuman, Assay Type: Sister-chromatid exchange (SCE) in vitro, Assay Code: SC2+, Evaluation Type: Evaluation B (Post-1980)): active; positive

Structure (SMILES): Oc1ccccc1
- mutagenic call [6]: active; positive
- mutagenic call (Species/Cell Type: Human, Assay Type: Sister-chromatid exchange (SCE) in vitro, Assay Code: SC1+, Evaluation Type: Evaluation B (Post-1980)): active; positive
- mutagenic call [7]: no conclusion
- mutagenic call (Species/Cell Type: Neurospora crassa, Assay Type: Reverse gene mutation, Assay Code: NER-, Evaluation Type: Evaluation A (Pre-1980)): inactive; negative

Structure (SMILES): Oc1ccc(Cl)c2cccnc12
- mutagenic call [8]: no conclusion

Structure (SMILES): CC(C)[C@@](O)(C(=O)OCC1=CCN2CCC[C@@H]12)[C@@H](C)O
- mutagenic call [9]: active; positive
- mutagenic call [10]: active; positive

Structure (SMILES): CCCCNc1ccc(C(=O)OCCN(C)C)cc1
- mutagenic call [8]: no conclusion

Structure (SMILES): Cc1ccc2cc3c(ccc4cc(C)ccc43)cc2c1
- mutagenic call [11]: no conclusion

Structure (SMILES): C=CC(=O)OCC
- mutagenic call [12]: active; positive

Structure (SMILES): O=C1NCCN1/N=C/c1ccc([N+](=O)[O-])o1
- call [1]: active; positive

Structure (SMILES): O=NN(CCCl)C(=O)NCCCl
- mutagenic call [13]: active; positive
- mutagenic call [10]: active; positive
- mutagenic call [6]: active; positive
- mutagenic call [5]: active; positive
- call [1]: active; positive
- mutagenic call [2]: active; positive
- mutagenic call [3]: active; positive
- mutagenic call (Species/Cell Type: Saccharomyces cerevisiae, Assay Type: Mitotic recombination or gene conversion, Assay Code: YEC+, Evaluation Type: Evaluation A (Pre-1980)): active; positive
- mutagenic call (Species/Cell Type: Salmonella typhimurium (one or more of the five standard strains: TA98, TA100, TA1535, TA1537, and TA1538), Assay Type: Histidine reverse gene mutation, Ames assay, Assay Code: SAL+, Evaluation Type: Evaluation A (Pre-1980)): active; positive

Structure (SMILES): C[CH2][Pb]([Cl])([CH2]C)[CH2]C
- mutagenic call (Species/Cell Type: Drosophila melanogaster, Assay Type: Aneuploidy, sex chromosome gain, chromosome aberrations, Assay Code: DAG-M, Evaluation Type: Evaluation A (Pre-1980)): inactive; negative
- mutagenic call (Species/Cell Type: Drosophila melanogaster, Assay Type: Aneuploidy, whole sex chromosome loss, chromosome aberrations, Assay Code: DAC+M, Evaluation Type: Evaluation A (Pre-1980)): active; positive

Structure (SMILES): Oc1ccc(O)cc1
- mutagenic call [9]: active; positive
- mutagenic call [4]: active; positive
- mutagenic call [5]: active; positive
- mutagenic call [12]: active; positive

Structure (SMILES): CCCCCN(C)N=O
- mutagenic call (Species/Cell Type: Escherichia coli polA (W3119 vs P3478), Assay Type: Rec-assay, DNA effects (bacterial DNA repair), Assay Code: RE1+, Evaluation Type: Evaluation A (Pre-1980)): active; positive

Structure (SMILES): O=C(O)C(=O)c1ccc(Cl)cc1
- mutagenic call (Species/Cell Type: Nonhuman, Assay Type: Sister-chromatid exchange (SCE) in vitro, Assay Code: SC2-, Evaluation Type: Evaluation B (Post-1980)): inactive; negative

Structure (SMILES): CO[C@@H]1[C@H](C)O[C@@H](O[C@@H]2C[C@H](Oc3cc(O)c4c(O)c5c(cc4c3)C[C@@H]([C@H](OC)C(=O)[C@@H](O)[C@@H](C)O)[C@H](O[C@@H]3C[C@H](OC4C[C@H](O)[C@@H](O)[C@H](C)O4)[C@@H](O)[C@H](C)O3)C5=O)O[C@H](C)[C@@H]2O)C[C@@H]1O (some centres not stated)
- mutagenic call (Species/Cell Type: Chinese hamster ovary (CHO) cells, Assay Type: Forward gene mutation at the HPRT locus, Assay Code: CHO+, Evaluation Type: Evaluation B (Post-1980)): active; positive

Structure (SMILES): CN(C)c1ccc(C#N)cc1
- mutagenic call [7]: no conclusion

Structure (SMILES): Cc1ccc2cc3c4c(ccc3c3c2c1CC3)C=C[C@H](O)[C@H]4O
- mutagenic call [13]: active; positive
- call (Species/Cell Type: Nonhuman, Assay Code: CCGT, Evaluation Type: Evaluation A (Pre-1980)): no conclusion
- mutagenic call [14]: active; positive

Structure (SMILES): CCN(CCCl)CCCNc1ccnc2ccc(OC)cc12
- mutagenic call [15]: active; positive

Structure (SMILES): CNC(=O)/C=C(\C)OP(=O)(OC)OC
- mutagenic call (Species/Cell Type: Bacillus subtilis (H17 vs M45), Assay Type: Rec-assay, spot test, DNA effects (bacterial DNA repair), Assay Code: REWT, Evaluation Type: Evaluation A (Pre-1980)): no conclusion
- mutagenic call (Species/Cell Type: Drosophila melanogaster, Assay Type: Sex-linked recessive lethal gene mutation, Assay Code: SRL-, Evaluation Type: Evaluation A (Pre-1980)): inactive; negative
- mutagenic call (Species/Cell Type: Escherichia coli WP2 UVRA, Assay Type: Tryptophan reverse gene mutation, Assay Code: WPU-*, Activation: With metabolic activation, Evaluation Type: Evaluation A (Pre-1980)): inactive; negative
- mutagenic call [16]: no conclusion
- mutagenic call (Species/Cell Type: Human diploid fibroblasts, Assay Type: Unscheduled DNA synthesis (UDS) in vitro, DNA effects, Assay Code: UDH+, Evaluation Type: Evaluation A (Pre-1980)): active; positive
- mutagenic call [5]: active; positive
- mutagenic call [12]: active; positive
- mutagenic call (Species/Cell Type: Saccharomyces cerevisiae, Assay Type: Mitotic recombination or gene conversion, Assay Code: YEH+, Evaluation Type: Evaluation A (Pre-1980)): active; positive
- mutagenic call [8]: no conclusion

Structure (SMILES): C[n+]1c2ccccc2cc2ccccc21
- mutagenic call (Species/Cell Type: Saccharomyces cerevisiae, Assay Type: Forward gene mutation, Assay Code: YEFT, Evaluation Type: Evaluation A (Pre-1980)): no conclusion

Structure (SMILES): CN(C)CCOc1ccc2c(c1)CC/C(=C\c1ncc([N+](=O)[O-])n1C)C2=O
- mutagenic call (Species/Cell Type: Neurospora crassa, Assay Type: Forward gene mutation, Assay Code: NEF+, Evaluation Type: Evaluation A (Pre-1980)): active; positive
- mutagenic call [15]: active; positive

Structure (SMILES): COc1ccc(CCC(=O)c2c(O)cc(O)cc2O)cc1O
- mutagenic call [7]: no conclusion

Structure (SMILES): Cc1cc2cc3c(C)cc(=O)oc3c(C)c2o1
- mutagenic call (Species/Cell Type: Human lymphocytes, Assay Type: Sister-chromatid exchange (SCE) in vitro, Assay Code: SCLT, Evaluation Type: Evaluation A (Pre-1980)): no conclusion
- mutagenic call (Species/Cell Type: Human, Assay Type: Sister-chromatid exchange (SCE) in vitro, Assay Code: SC1T, Evaluation Type: Evaluation A (Pre-1980)): no conclusion

Structure (SMILES): Nc1nc2nc[nH]c2c(=O)[nH]1
- mutagenic call [11]: no conclusion
- mutagenic call [16]: no conclusion

Structure (SMILES): Cc1ccc2ncccc2c1
- mutagenic call [14]: active; positive

Structure (SMILES): C[N+](=O)[O-]
- mutagenic call [7]: no conclusion

Structure (SMILES): O=C1c2c(O)cccc2Cc2cccc(O)c21
- mutagenic call (Species/Cell Type: Mammalian polychromatic erythrocytes, Assay Type: Micronucleus test, chromosome aberrations, Assay Code: MNT-, Evaluation Type: Evaluation B (Post-1980)): inactive; negative
- mutagenic call (Species/Cell Type: Saccharomyces cerevisiae, Assay Type: Mitotic recombination or gene conversion, Assay Code: YECT, Evaluation Type: Evaluation A (Pre-1980)): no conclusion
